Test results taken from PubChem BioAssay (NCI).
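Dose response: 5 concentrations. Exposure: 48 h. Format: 96-well plates. Endpoint: linear interpolation; highest concentration if not reached. GI50: concentration for 50% inhibition of growth. TGI is the concentration that stops growth completely.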

Columns and labels:
Assay in all cases: growth of human tumour cells (NCI), 48 h
[1] = tested on: SN12C renal
[2] = tested on: UO-31 renal
[3] = tested on: CCRF-CEM leukemia
[4] = tested on: SF-295 CNS
[5] = tested on: LOX IMVI melanoma
[6] = tested on: SR leukemia
[7] = tested on: MDA-MB-231 breast
[8] = tested on: PC-3 prostate
[9] = tested on: HOP-92 NSCLC
[10] = tested on: A498 renal

Row | SMILES | GI50 [1] [µM] | TGI [1] [µM] | GI50 [2] [µM] | TGI [2] [µM] | GI50 [3] [nM] | TGI [3] [µM] | GI50 [4] [µM] | TGI [4] [µM] | GI50 [5] [µM] | TGI [5] [µM] | GI50 [6] [nM] | TGI [6] [µM] | GI50 [7] [µM] | TGI [7] [µM] | GI50 [8] [µM] | TGI [8] [µM] | TGI [9] [µM] | TGI [10] [µM] | GI50 [9] [µM] | GI50 [10] [µM]
1 | COc1ccc(C(=O)COc2ccc(/C=C3\COc4ccc(OC)cc4C3=O)cc2)cc1 | 30.9 | > 100 | 18.4 | 61.5 | 2860 | 10.2 | 14.5 | 38.1 | 6.59 | 24.2 | 2090 | 5.91 | 30 | 92.5 | 12.8 | 47.1 |  |  |  | 
2 | O=C(c1ccccc1)C1OC12C(=O)Nc1ccccc12 (stereo unspecified) |  | > 100 |  | > 100 |  | 25.2 |  | 81.8 |  | > 100 |  |  |  |  |  |  | 55.2 | > 100 |  | 
3 | O=C1OC2CCCC[C@@H]2C2C[C@]34CCCCC3[C@@H](C(=O)O4)C12 (stereo partly specified) |  | > 100 |  | > 100 |  | > 100 |  | > 100 |  | > 100 |  |  |  |  |  |  | > 100 | > 100 |  | 
4 | CN(C)c1cc[c]([Sn]([c]2ccc(N(C)C)cc2)([c]2ccc(N(C)C)cc2)[c]2ccc(N(C)C)cc2)cc1 | > 100 | > 100 | 8.76 | 21.1 | 1260 | 5.72 | 10.9 | 25.7 | 2.89 |  |  |  |  |  |  |  | 20.5 | 20.3 | 8.08 | 7.47
5 | O=c1c2cc(Br)cc(Br)c2nc(CCCl)n1CCO |  | > 100 |  | > 100 |  | > 100 |  | > 100 |  | > 100 |  |  |  |  |  |  | > 100 | > 100 |  | 
6 | CCN(CC)c1ccc(N=Nc2ccc(-c3nc4ccc[n+](C)c4s3)cc2)cc1 |  | 16.2 |  | 46 |  | > 100 |  | 37 |  | 15.8 |  | 53.7 |  |  |  |  | 30.1 | 26.6 |  | 
7 | CCOC(=O)NC(=O)c1cn(CCCOC(=O)CCCCCCCCCCC(=O)OCCCn2cc(C(=O)NC(=O)OCC)c(=O)[nH]c2=O)c(=O)[nH]c1=O |  | > 100 |  | > 100 |  | > 100 |  | > 100 |  | > 100 |  | > 100 |  |  |  |  | > 100 |  |  | 
8 | C1C[OH+]CC[OH+]CC[OH+]CC[OH+]CC[OH+]1.[Cl-].[V] | > 100 | > 100 | 86.3 | > 100 | > 100000 | > 100 | 28.5 | > 100 | 30.6 | > 100 |  |  |  |  |  |  | > 100 | > 100 | 34.3 | > 100
9 | N#CC1CC2(C1)OCCS2 (stereo unspecified) |  | > 100 |  | > 100 |  | > 100 |  | > 100 |  | > 100 |  | > 100 |  |  |  |  |  | > 100 |  | 
10 | O=C1CCC(O)=C1N=Nc1ccccc1 |  | > 100 |  | > 100 |  | > 100 |  | > 100 |  | > 100 |  |  |  |  |  |  | > 100 | > 100 |  | 
11 | O=C(Nc1c(Cl)cc([N+](=O)[O-])cc1Cl)C(=O)C(C1OC(=O)c2ccccc21)[N+](=O)[O-] (stereo unspecified) |  | > 100 |  | > 100 |  | > 100 |  | > 100 |  | > 100 |  | > 100 |  |  |  |  | 99.1 | > 100 |  | 
12 | CC(=O)N[C@H]1CSSC[C@@H](C(N)=O)NC(=O)[C@H](C(C)C)NC(=O)[C@H](C)NC(=O)[C@H](Cc2cnc[nH]2)NC1=O | > 100 | > 100 | > 100 | > 100 | 29100 | > 100 | > 100 | > 100 | > 100 | > 100 | > 100000 | > 100 | > 100 | > 100 | > 100 | > 100 | > 100 |  | > 100 | 
13 | C=CCc1ccc(Oc2cc(CC=C)c3c(c2O)O[C@@H](CO)[C@H]3c2ccc(O)c(-c3cc(CC=C)ccc3O)c2)cc1 |  | > 100 |  | > 100 |  | 46.6 |  | > 100 |  | 30.9 |  | 46.9 |  |  |  |  | > 100 | > 100 |  | 
14 | O=C1CSC(/C(=N/Nc2ccccc2)c2nc3ccccc3[nH]2)=N1 |  | > 100 |  | > 100 |  | 53.6 |  | 58.5 |  | > 100 |  | 31.1 |  |  |  |  | 49.7 | > 100 |  | 
15 | CCn1c(SCc2ccc(C)cc2)nnc1-c1nn(-c2ccc(Cl)cc2Cl)c(-c2ccc(Cl)cc2)c1C | 2.31 | 10.8 | 2.66 | 10.8 | 2510 | 13.5 | 2.4 | 11.7 | 2.72 | 10.7 |  |  | 2.35 | 8.54 | 0.49 | 10.4 | 4.22 | 7.88 | 0.53 | 1.37
16 | O=C1[C@@H]2C(c3ccccc3F)=NO[C@@H]2C(=O)N1c1ccc(Cc2ccc(N3C(=O)[C@H]4C(c5ccccc5F)=NO[C@H]4C3=O)cc2)cc1 |  | > 100 |  | > 100 |  | > 70.8 |  | > 100 |  | > 100 |  | > 100 |  |  |  |  | > 100 | > 100 |  | 
17 | COc1cc(/C=C(\C#N)c2ccccc2)cc(OC)c1 |  | > 100 |  | > 100 |  | > 100 |  | 73.7 |  | 65.4 |  | > 100 |  |  |  |  |  |  |  | 
18 | O=C1CC2CCCC23CC2(CCN13)OCCO2 (stereo unspecified) |  | > 100 |  | > 100 |  | > 100 |  | > 100 |  | > 100 |  | > 100 |  |  |  |  | > 100 | > 100 |  | 
19 | Clc1ccc2c(c1)-c1c3c(nn1-c1ccccc1)-c1ccccc1SC3O2 (stereo unspecified) |  |  |  | > 100 |  | > 100 |  | > 100 |  | > 100 |  |  |  |  |  |  | > 100 | > 100 |  | 
20 | CN(CCC#N)c1ccc(/C=C(\C#N)c2ccc(Br)cc2)cc1 |  |  | > 100 | > 100 |  |  |  |  |  |  |  |  | 4.72 | > 100 | > 100 | > 100 | > 100 | > 100 | 2.52 | > 100
21 | CCCCCCCCCCCC(=O)OCC1OC(OC)C(NC(=O)N(CCCl)N=O)C(O)C1O (stereo unspecified) |  | 29.5 |  | 33.5 |  | 13.8 |  | 20.8 |  | 21.6 |  | 18.6 |  |  |  |  |  | 35.7 |  | 
22 | O=C1NC2OC(C(O)CO)C(O)C2O1 (stereo unspecified) |  | > 100 |  | > 100 |  | > 100 |  | > 100 |  | > 100 |  | > 100 |  |  |  |  | > 100 | > 100 |  | 
